Measurements reported in US20200138827A1, “SMALL MOLECULE MODULATORS OF HUMAN STING” (Curadev Pharma Limited, priority 2017, published 2020).

biological target: T1, WT/R232 STING protein (Homo sapiens, UniProt Q86WV6, H232R); experiment: Luciferase reporter assay in HEK293T-hSTING-Luciferase cells, WT/R232; assay type: cell-based; conditions: 20 hr stimulation, read-out: R232 Activity (EC50 range)
T1 construct: host or cells: HEK293T
Text: • a) Stable STING expressing cells—Stable HEK293T STING-expressing cell lines were generated using plasmids purchased from Invivogen, Calif., USA, that contain STING cDNA cloned into the pUNO-1 vector under hEF1-HTLV promoter and containing the Blasticidin selection cassette. The plasmids hSTING(R232), hSTING(H232), hSTING(HAQ) were directly procured from Invivogen while hSTING (AQ) and hSTING (Q) were derived from hSTING(HAQ) and hSTING (R232) plasmids respectively by using a PCR based site directed mutagenesis method. These vectors were individually transfected into HEK293T cells using Lipofectamine (Invitrogen) and transfected cells were selected under Blasticidin selection. These transfected cells were further subjected to clonal selection using the limiting dilution method to obtain clonally pure populations of HEK cells transfected with each of the above mentioned human STING variants. Only those clones were selected in which ligand independent activation of STING was minimal. • b) Stable Luciferase reporter gene expressing cells—Stable HEK293T Luciferase reporter gene expressing cell lines were generated using pCDNA4 plasmids under an IRF-inducible promoter. This promoter is comprised of five tandem interferon-stimulated response elements (ISRE) fused to an ISG54 minimal promoter. This vector was transfected into HEK293T cells using Lipofectamine (Invitrogen) and transfected cells were selected under Zeocin selection. These transfected cells were further subjected to clonal selection using the limiting dilution method to obtain clonally pure populations of HEK cells transfected the Luciferase reporter construct. Only those clones were selected in which ligand independent induction of luciferase was minimal.
5×10^5 clonally selected HEK293T-hSTING-Luciferase cells were seeded in 384-well plates in growth medium and stimulated with novel compounds. After 20 hr of stimulation supernatant were removed and secretary reporter gene activity were measured using the Quanti-Luc detection system (Invivogen) on a Spectramax i3X luminometer.
All compounds were first tested in a primary screen using WT/R232 STING protein to obtain a ‘fold-induction’ over baseline levels of protein activity.

T1 sequence (Q86WV6 whole entry H232R): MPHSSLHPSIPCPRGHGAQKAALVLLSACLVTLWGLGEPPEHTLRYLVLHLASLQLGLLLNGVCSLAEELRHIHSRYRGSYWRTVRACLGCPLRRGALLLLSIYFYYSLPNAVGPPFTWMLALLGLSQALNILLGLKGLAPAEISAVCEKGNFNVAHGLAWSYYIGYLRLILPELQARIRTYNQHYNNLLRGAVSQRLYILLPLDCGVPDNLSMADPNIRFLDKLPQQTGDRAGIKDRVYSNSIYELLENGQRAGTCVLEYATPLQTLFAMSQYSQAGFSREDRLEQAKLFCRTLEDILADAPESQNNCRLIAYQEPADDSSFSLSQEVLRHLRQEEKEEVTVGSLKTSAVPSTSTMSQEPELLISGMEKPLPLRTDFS

| Compound | EC50 |
| --- | --- |
| O=C(NCc1ccc(C(F)(F)F)cc1)c1ccc2c(c1)N(Cc1ccccc1)C(=O)CS2 [Example 72, 4-benzyl-3-oxo-N-(4-(trifluoromethyl)benzyl)-3,4-dihydro-2H-benzo[b-1,4]thiazine-6-carboxamide] | > 10 µM |
| O=C(NCc1ccc(Cl)cc1)c1ccc2c(c1)N(Cc1ccccc1)C(=O)CS2 [Example 73, 4-benzyl-N-(4-chlorobenzyl)-3-oxo-3,4-dihydro-2H-benzo[b-1,4]thiazine-6-carboxamide] | 1 to 10 µM |
| O=C(NCc1ccc2ccccc2c1)c1ccc2c(c1)N(Cc1ccccc1)C(=O)CS2 [Example 74, 4-benzyl-N-(naphthalen-2-ylmethyl)-3-oxo-3,4-dihydro-2H-benzo[b-1,4]thiazine-6-carboxamide] | 1 to 10 µM |
| O=C(NC1(c2ccccc2)CCCC1)c1ccc2c(c1)N(Cc1ccccc1)C(=O)CS2 [Example 75, 4-benzyl-3-oxo-N-(1-phenylcyclopentyl)-3,4-dihydro-2H-benzo[b-1,4]thiazine-6-carboxamide] | > 10 µM |
| Cc1cccc(CNC(=O)c2ccc3c(c2)N(Cc2ccccc2)C(=O)CS3)c1 [Example 76, 4-benzyl-N-(3-methylbenzyl)-3-oxo-3,4-dihydro-2H-benzo[b-1,4]thiazine-6-carboxamide] | > 10 µM |
| Cc1nc(CNC(=O)c2ccc3c(c2)N(Cc2ccccc2)C(=O)CS3)cs1 [Example 77, 4-benzyl-N-((2-methylthiazol-4-yl)methyl)-3-oxo-3,4-dihydro-2H-benzo[b-1,4]thiazine-6-carboxamide] | > 10 µM |
| CC(C)(NC(=O)c1ccc2c(c1)N(Cc1ccccc1)C(=O)CS2)c1ccccc1F [Example 78, 4-benzyl-N-(2-(2-fluorophenyl)propan-2-yl)-3-oxo-3,4-dihydro-2H-benzo[b-1,4]thiazine-6-carboxamide] | > 10 µM |
| O=C(NC(Cc1ccccc1)c1ccccc1)c1ccc2c(c1)N(Cc1ccccc1)C(=O)CS2 (centres unmarked) [Example 79, 4-benzyl-N-(1,2-diphenylethyl)-3-oxo-3,4-dihydro-2H-benzo[b-1,4]thiazine-6-carboxamide] | > 10 µM |
| O=C(NCCC1CCCCC1)c1ccc2c(c1)N(Cc1ccccc1)C(=O)CS2 [Example 81, 4-benzyl-N-(2-cyclohexylethyl)-3-oxo-3,4-dihydro-2H-benzo[b-1,4]thiazine-6-carboxamide] | > 10 µM |
| Cc1noc(CN2C(=O)CSc3ccc(C(=O)NCc4ccco4)cc32)n1 [Example 84, N-(furan-2-ylmethyl)-4-((3-methyl-1,2,4-oxadiazol-5-yl)methyl)-3-oxo-3,4-dihydro-2H-benzo[b-1,4]thiazine-6-carboxamide] | > 10 µM |
| Cc1cc(CN2C(=O)CSc3ccc(C(=O)NCc4ccco4)cc32)no1 [Example 85, N-(furan-2-ylmethyl)-4-((5-methylisoxazol-3-yl)methyl)-3-oxo-3,4-dihydro-2H-benzo[b-1,4]thiazine-6-carboxamide] | > 10 µM |
| NC(=O)c1cccc(CN2C(=O)CSc3ccc(C(=O)NCc4ccco4)cc32)c1 [Example 86, 4-(3-carbamoylbenzyl)-N-(furan-2-ylmethyl)-3-oxo-3,4-dihydro-2H-benzo[b-1,4]thiazine-6-carboxamide] | > 10 µM |
| O=C(NCc1ccco1)c1ccc2c(c1)N(Cc1cccc(OC(F)(F)F)c1)C(=O)CS2 [Example 88, N-(furan-2-ylmethyl)-3-oxo-4-(3-(trifluoromethoxy)benzyl)-3,4-dihydro-2H-benzo[b-1,4]thiazine-6-carboxamide] | > 10 µM |
| O=C(NCc1ccco1)c1ccc2c(c1)N(CCc1ccccc1Cl)C(=O)CS2 [Example 89, 4-(2-chlorophenethyl)-N-(furan-2-ylmethyl)-3-oxo-3,4-dihydro-2H-benzo[b-1,4]thiazine-6-carboxamide] | > 10 µM |
| O=C(NCc1ccco1)c1ccc2c(c1)N(CCc1cccc(Cl)c1)C(=O)CS2 [Example 90, 4-(3-chlorophenethyl)-N-(furan-2-ylmethyl)-3-oxo-3,4-dihydro-2H-benzo[b-1,4]thiazine-6-carboxamide] | > 10 µM |
| O=C(NCc1ccco1)c1ccc2c(c1)N(Cc1ccccc1OC(F)(F)F)C(=O)CS2 [Example 91, N-(furan-2-ylmethyl)-3-oxo-4-(2-(trifluoromethoxy)benzyl)-3,4-dihydro-2H-benzo[b-1,4]thiazine-6-carboxamide] | > 10 µM |

| Compound | EC50 |
| --- | --- |
| O=C(NCc1ccco1)c1ccc2c(c1)N(CCc1cccc(C(F)(F)F)c1)C(=O)CS2 [Example 92, N-(furan-2-ylmethyl)-3-oxo-4-(3-(trifluoromethyl)phenethyl)-3,4-dihydro-2H-benzo[b-1,4]thiazine-6-carboxamide] | > 10 µM |
| N#Cc1ccccc1CN1C(=O)CSc2ccc(C(=O)NCc3ccco3)cc21 [Example 94, 4-(2-cyanobenzyl)-N-(furan-2-ylmethyl)-3-oxo-3,4-dihydro-2H-benzo[b-1,4]thiazine-6-carboxamide] | > 10 µM |
| O=C(NCc1ccco1)c1ccc2c(c1)N(Cc1ccc(Cl)s1)C(=O)CS2 [Example 95, 4-((5-chlorothiophen-2-yl)methyl)-N-(furan-2-ylmethyl)-3-oxo-3,4-dihydro-2H-benzo[b-1,4]thiazine-6-carboxamide] | > 10 µM |
| Cc1nc(CN2C(=O)CSc3ccc(C(=O)NCc4ccco4)cc32)cs1 [Example 96, N-(furan-2-ylmethyl)-4-((2-methylthiazol-4-yl)methyl)-3-oxo-3,4-dihydro-2H-benzo[b-1,4]thiazine-6-carboxamide] | > 10 µM |
| O=C(NCc1ccco1)c1ccc2c(c1)N(Cc1cccc(C(F)(F)F)c1)C(=O)CS2 [Example 97, N-(furan-2-ylmethyl)-3-oxo-4-(3-(trifluoromethyl)benzyl)-3,4-dihydro-2H-benzo[b-1,4]thiazine-6-carboxamide] | > 10 µM |
| CN1CCCC(CN2C(=O)CSc3ccc(C(=O)NCc4ccco4)cc32)C1 (centres unmarked) [Example 98, N-(furan-2-ylmethyl)-4-((1-methylpiperidin-3-yl)methyl)-3-oxo-3,4-dihydro-2H-benzo[b-1,4]thiazine-6-carboxamide] | > 10 µM |
| O=C(NCc1ccco1)c1ccc2c(c1)N(Cc1cc(F)ccc1Cl)C(=O)CS2 [Example 99, 4-(2-chloro-5-fluorobenzyl)-N-(furan-2-ylmethyl)-3-oxo-3,4-dihydro-2H-benzo[b-1,4]thiazine-6-carboxamide] | 1 to 10 µM |
| O=C(NCc1ccco1)c1ccc2c(c1)N(Cc1cc(F)ccc1F)C(=O)CS2 [Example 100, 4-(2,5-difluorobenzyl)-N-(furan-2-ylmethyl)-3-oxo-3,4-dihydro-2H-benzo[b-1,4]thiazine-6-carboxamide] | 1 to 10 µM |
| O=C(NCc1ccco1)c1ccc2c(c1)N(Cc1c(F)cccc1F)C(=O)CS2 [Example 101, 4-(2,6-difluorobenzyl)-N-(furan-2-ylmethyl)-3-oxo-3,4-dihydro-2H-benzo[b-1,4]thiazine-6-carboxamide] | 1 to 10 µM |
| O=C(NCc1ccco1)c1ccc2c(c1)N(Cc1cc(Cl)cc(C(F)(F)F)c1)C(=O)CS2 [Example 102, 4-(3-chloro-5-(trifluoromethyl)benzyl)-N-(furan-2-ylmethyl)-3-oxo-3,4-dihydro-2H-benzo[b-1,4]thiazine-6-carboxamide] | 1 to 10 µM |
| O=C(NCc1ccco1)c1ccc2c(c1)N(CCS(=O)(=O)c1ccccc1)C(=O)CS2 [Example 103, N-(furan-2-ylmethyl)-3-oxo-4-(2-(phenylsulfonyl)ethyl)-3,4-dihydro-2H-benzo[b-1,4]thiazine-6-carboxamide] | > 10 µM |
| O=C(NCc1ccco1)c1ccc2c(c1)N(Cc1cn3ccsc3n1)C(=O)CS2 [Example 104, N-(furan-2-ylmethyl)-4-(imidazo[2,1-b]thiazol-6-ylmethyl)-3-oxo-3,4-dihydro-2H-benzo[b-1,4]thiazine-6-carboxamide] | > 10 µM |
| Cc1nnc(CN2C(=O)CSc3ccc(C(=O)NCc4ccco4)cc32)n1C [Example 105, 4-((4,5-dimethyl-4H-1,2,4-triazol-3-yl)methyl)-N-(furan-2-ylmethyl)-3-oxo-3,4-dihydro-2H-benzo[b-1,4]thiazine-6-carboxamide] | > 10 µM |
| O=C(NCc1ccco1)c1ccc2c(c1)N(Cc1ccccc1F)C(=O)CS2 [Example 106, 4-(2-fluorobenzyl)-N-(furan-2-ylmethyl)-3-oxo-3,4-dihydro-2H-benzo[b-1,4]thiazine-6-carboxamide] | > 10 µM |
| O=C(NCc1cccs1)c1ccc2c(c1)N(Cc1c(F)cccc1Cl)C(=O)CS2 [Example 107, 4-(2-chloro-6-fluorobenzyl)-3-oxo-N-(thiophen-2-ylmethyl)-3,4-dihydro-2H-benzo[b-1,4]thiazine-6-carboxamide] | 1 to 10 µM |
| O=C(NCc1ccccn1)c1ccc2c(c1)N(Cc1c(F)cccc1Cl)C(=O)CS2 [Example 108, 4-(2-chloro-6-fluorobenzyl)-3-oxo-N-(pyridin-2-ylmethyl)-3,4-dihydro-2H-benzo[b-1,4]thiazine-6-carboxamide] | > 10 µM |
